For one experiment, the target named is T1, human CB-2 receptor (Homo sapiens, UniProt P34972).
T1 construct: expressed in transfected cells; host or cells: SK-N-MC cells, pcDNA3 CB-2 (human), semi-purified membranes
The experiment is described as follows: Binding assay, cannabinoid CB2 receptor ([3H]-CP-55,940 displacement). The settings on record: for inhibition at 1 µM: test concentration 1 μM (superscript b). As for the experimental part: (§1) Binding Assay for CB1 or CB2 Agonists or Inverse Agonists
(§2) The human CB-1 and CB-2 receptors were stably expressed in SK-N-MC cells transfected with pcDNA3 CB-1 (human) or pcDNA3 CB-2 (human). The cells were grown in T-180 cell culture flasks under standard cell culture conditions at 37° C. in a 5% CO2 atmosphere. The cells were harvested by trypsinization and homogenized in a homogenization buffer (10 mM Tris, 0.2 mM MgCl2, 5 mM KCl, with protease inhibitors aprotinin, leupeptin, pepstatin A and bacitracin) and centrifuged (2000 g). The supernatant was then centrifuged in 2M sucrose (31,300 g) to produce a semi-purified membrane pellet. The pellet was resuspended in homogenization and store at −80° C.
(§3) On the day of the assay, the pellet was thawed on ice and diluted in assay buffer (50 mM Tris-HCl, 5 mM MgCl2, 2.5 mM EDTA, 0.5 mg/mL fatty acid free bovine serum albumin, pH 7.5). The diluted membrane was added with buffer, test compound or standard and the radioligand [H]^3+-CP-55,940_(0.2 nM) to the wells of a 96-well polypropylene plate. Non-specific binding was measured in wells containing 10 uM WIN 55,212. The plate was covered and incubated for 90 minutes at 30° C. The contents were then aspirated onto a Packard Unifilter G/C filter bottom plate prewet with 0.5% polyethyleneimine. The wells of the polypropylene plate were rinsed and aspirated seven times with a 0.9% saline-0.5% Tween 20 solution. The Unifilter plate was dried, a scintillation cocktail was added to each well and the counts representing binding were quantitated in a TopCount scintillation counter.
(§4) The IC50 binding values for compounds tested were calculated by linear regression and were obtained from studies in which varying compound concentrations were used. Where an IC50 was not obtained, test results are provided as percent inhibition at a test concentration of ^a0.2 μM, ^b1 μM or ^c10 μM.

Another experiment deals with human CB1 receptor (Homo sapiens, UniProt P21554). The experiment is described as follows: Binding assay, cannabinoid CB1 receptor ([3H]-CP-55,940 displacement). The conditions noted are these: for inhibition at 0.2 µM: test concentration 0.2 μM (superscript a); for inhibition at 0.2 µM / inhibition at 1 µM / inhibition at 10 µM: read-out: CB1 binding percent inhibition; for inhibition at 1 µM: test concentration 1 μM (superscript b); for inhibition at 10 µM: test concentration 10 μM (superscript c). Details: expressed in transfected cells; host or cells: SK-N-MC cells, pcDNA3 CB-1 (human), semi-purified membranes. As for the experimental part: as §1, §2, §3, §4
Chain of human CB1 receptor (P21554 whole entry): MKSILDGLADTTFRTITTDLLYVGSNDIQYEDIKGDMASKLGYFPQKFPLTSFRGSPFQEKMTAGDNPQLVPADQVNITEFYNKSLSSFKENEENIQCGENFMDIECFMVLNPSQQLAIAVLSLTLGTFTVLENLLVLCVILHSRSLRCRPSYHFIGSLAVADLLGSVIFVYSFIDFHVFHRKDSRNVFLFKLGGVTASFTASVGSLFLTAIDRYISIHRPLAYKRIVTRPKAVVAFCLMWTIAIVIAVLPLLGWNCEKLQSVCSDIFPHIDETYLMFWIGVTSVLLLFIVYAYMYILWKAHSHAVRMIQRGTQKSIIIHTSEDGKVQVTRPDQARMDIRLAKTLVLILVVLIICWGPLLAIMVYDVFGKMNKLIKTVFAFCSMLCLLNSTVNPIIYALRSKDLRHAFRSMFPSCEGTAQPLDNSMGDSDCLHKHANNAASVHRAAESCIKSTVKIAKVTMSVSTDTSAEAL

[1] abbreviates: test concentration 0.2 μM (superscript a), read-out: CB2 binding percent inhibition.
[2] abbreviates: read-out: CB2 binding percent inhibition.

Like-named read-outs stand apart in the source and are kept apart here.

T1 sequence (P34972 whole entry): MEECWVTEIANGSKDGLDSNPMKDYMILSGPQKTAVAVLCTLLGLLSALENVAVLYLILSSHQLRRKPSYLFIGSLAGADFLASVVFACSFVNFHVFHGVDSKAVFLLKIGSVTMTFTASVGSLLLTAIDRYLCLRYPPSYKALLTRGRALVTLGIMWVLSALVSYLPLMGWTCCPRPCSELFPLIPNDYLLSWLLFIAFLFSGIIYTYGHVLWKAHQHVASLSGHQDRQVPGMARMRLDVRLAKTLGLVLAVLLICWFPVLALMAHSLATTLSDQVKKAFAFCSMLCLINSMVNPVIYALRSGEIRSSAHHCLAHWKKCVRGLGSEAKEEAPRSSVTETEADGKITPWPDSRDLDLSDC

For the compound `O=C(c1nn(-c2ccc(Cl)cc2Cl)c2c1CS(=O)(=O)C/C2=C\c1ccc(F)cc1)N1CCCCC1` [Cpd 101, (7Z)-[1-(2,4-dichloro-phenyl)-7-(4-fluoro-benzylidene)-5,5-dioxo-4,5,6,7-tetrahydro-1H-5λ^6-thiopyrano[4,3-c]pyrazol-3-yl]-piperidin-1-yl-methanone], the inhibition at 0.2 µM on human CB-2 receptor (setting [1]) turned out to be 24%; at human CB1 receptor it was 61%.
For `C[C@@H](NC(=O)c1c2c(nn1-c1ccc(Cl)cc1Cl)/C(=C/c1ccc(F)cc1)CSC2)C1CCCCC1` [Cpd 89, (7Z)-2-(2,4-dichloro-phenyl)-7-(4-fluoro-benzylidene)-2,4,6,7-tetrahydro-thiopyrano[4,3-c]pyrazole-3-carboxylic acid [(1R)-1-cyclohexyl-ethyl]-amide], the inhibition at 0.2 µM on human CB-2 receptor (setting [1]) was 10%. On human CB1 receptor, this compound yielded an IC50 of 74 nM.
`C[C@H](NS(=O)(=O)/C=C/c1c2c(nn1Cc1ccccc1)CCSC2)C1CCCCC1` [Cpd 8]: the inhibition at 1 µM is 5% at human CB-2 receptor (setting [2]) and 8% on human CB1 receptor.
Regarding `O=C(N[C@@H]1CCC[C@H]1O)c1nn(-c2ccc(Cl)cc2Cl)c2c1CSC/C2=C\c1ccc(F)cc1` [Cpd 60, (7Z)-1-(2,4-dichloro-phenyl)-7-(4-fluoro-benzylidene)-1,4,6,7-tetrahydro-thiopyrano[4,3-c]pyrazole-3-carboxylic acid [(1R,2R)-2-hydroxy-cyclopentyl]-amide], the inhibition at 0.2 µM on human CB-2 receptor (setting [1]) was 17%; on human CB1 receptor it was 60%.
Regarding `C[C@@H](NC(=O)c1nn(-c2ccc(Cl)cc2Cl)c2c1CS(=O)(=O)C/C2=C\c1ccc(F)cc1)c1ccccc1` [Cpd 66, (7Z)-1-(2,4-dichloro-phenyl)-7-(4-fluoro-benzylidene)-5,5-dioxo-4,5,6,7-tetrahydro-1H-5λ^6-thiopyrano[4,3-c]pyrazole-3-carboxylic acid [(1R)-1-phenyl-ethyl]-amide], the inhibition at 0.2 µM at human CB-2 receptor (setting [1]) turned out to be 24%. Moreover, the half-maximal inhibitory concentration (IC50) on human CB1 receptor turned out to be 4 nM.
`C[C@H](NS(=O)(=O)/C=C/c1nn(Cc2ccccc2)c2c1CS(=O)(=O)CC2)C1CCCCC1` [Cpd 15, (E)-2-(1-benzyl-5,5-dioxo-4,5,6,7-tetrahydro-1H-5λ^6-thiopyrano[4,3-c]pyrazol-3-yl)-ethenesulfonic acid [(1S)-1-cyclohexyl-ethyl]-amide]: the inhibition at 1 µM at human CB-2 receptor (setting [2]) is 0%; at human CB1 receptor, 4%.
In the case of `C[C@@H](NS(=O)(=O)/C=C/c1c2c(nn1Cc1ccccc1)CCSC2)C1CCCCC1` [Cpd 6, (E)-2-(2-benzyl-2,4,6,7-tetrahydro-thiopyrano[4,3-c]pyrazol-3-yl)-ethenesulfonic acid [(1R)-1-cyclohexyl-ethyl]-amide], the values for the inhibition at 1 µM at human CB-2 receptor (setting [2]) and at human CB1 receptor were 0% and 16%, respectively.
For the compound `C[C@@H](NS(=O)(=O)/C=C/c1nn(Cc2ccccc2)c2c1CS(=O)(=O)CC2)c1ccccc1` [Cpd 9, (E)-2-(1-benzyl-5,5-dioxo-4,5,6,7-tetrahydro-1H-5λ^6-thiopyrano[4-3-c]pyrazol-3-yl)-ethenesulfonic acid [(1R)-1-phenyl-ethyl]-amide], the inhibition at 1 µM on human CB-2 receptor (setting [2]) and on human CB1 receptor was 6% in each case.
`C[C@H](NC(=O)c1nn(-c2ccc(Cl)cc2Cl)c2c1C[S+]([O-])C/C2=C\c1ccc(F)cc1)c1ccccc1` (stereo partly drawn) [Cpd 74, (7Z)-1-(2,4-dichloro-phenyl)-7-(4-fluoro-benzylidene)-5-oxo-4,5,6,7-tetrahydro-1H-5λ^4-thiopyrano[4,3-c]pyrazole-3-carboxylic acid [(1S)-1-phenyl-ethyl]-amide]: the figures for the inhibition at 0.2 µM on human CB-2 receptor (setting [1]) and on human CB1 receptor were 8% and 45%, respectively.
`COC[C@H]1CCCN1NC(=O)c1nn(-c2ccc(Cl)cc2Cl)c2c1CSC/C2=C\c1ccc(F)cc1` [Cpd 122, (7Z)-1-(2,4-dichloro-phenyl)-7-(4-fluoro-benzylidene)-1,4,6,7-tetrahydro-thiopyrano[4,3-c]pyrazole-3-carboxylic acid [(2R)-2-(methoxymethyl)-pyrrolidin-1-yl]-amide]: the inhibition at 0.2 µM at human CB-2 receptor (setting [1]) is 18%. For the same compound, at human CB1 receptor, the IC50 amounted to 6 nM.
Regarding `O=C(N[C@@H]1CCC[C@H]1O)c1nn(-c2ccc(Cl)cc2Cl)c2c1C[S+]([O-])C/C2=C\c1ccc(F)cc1` (stereo partly drawn) [Cpd 76, (7Z)-1-(2,4-dichloro-phenyl)-7-(4-fluoro-benzylidene)-5-oxo-4,5,6,7-tetrahydro-1H-5λ^4-thiopyrano[4,3-c]pyrazole-3-carboxylic acid [(1R,2R)-2-hydroxy-cyclopentyl]-amide], the inhibition at 0.2 µM on human CB-2 receptor (setting [1]) was 0%; at human CB1 receptor it was 20%.
For the compound `O=C(NNC1CCCCC1)c1nn(-c2ccc(Cl)cc2Cl)c2c1CSC/C2=C\c1ccc(F)cc1` [Cpd 115, (7Z)-1-(2,4-dichloro-phenyl)-7-(4-fluoro-benzylidene)-1,4,6,7-tetrahydro-thiopyrano[4,3-c]pyrazole-3-carboxylic acid N′-cyclohexyl-hydrazide], the inhibition at 0.2 µM at human CB-2 receptor (setting [1]) came out at 19%. The compound further had an IC50 at human CB1 receptor of 79 nM.
With `C[C@H](NC(=O)c1nn(-c2ccc(Cl)cc2Cl)c2c1CSC/C2=C\c1ccc(F)cc1)c1ccccc1` [Cpd 62, (7Z)-1-(2,4-dichloro-phenyl)-7-(4-fluoro-benzylidene)-1,4,6,7-tetrahydro-thiopyrano[4,3-c]pyrazole-3-carboxylic acid [(1S)-1-phenyl-ethyl]-amide], the inhibition at 0.2 µM on human CB-2 receptor (setting [1]) stood at 17%. The compound also had a 50% inhibitory concentration (IC50) on human CB1 receptor of 48 nM.
Turning to `C[C@@H](NS(=O)(=O)/C=C/c1c2c(nn1Cc1ccccc1)CCS(=O)(=O)C2)c1ccccc1` [Cpd 4, (E)-2-(2-benzyl-5,5-dioxo-4,5,6,7-tetrahydro-2H-5λ^6-thiopyrano[4,3-c]pyrazol-3-yl)-ethenesulfonic acid [(1R)-1-phenyl-ethyl]-amide], the inhibition at 1 µM on human CB-2 receptor (setting [2]) amounted to 0%; on human CB1 receptor, 12%.
Turning to `C[C@@H](NS(=O)(=O)/C=C/c1c2c(nn1Cc1ccccc1)CCSC2)c1ccccc1` [Cpd 2, (E)-2-(2-benzyl-2,4,6,7-tetrahydro-thiopyrano[4,3-c]pyrazol-3-yl)-ethenesulfonic acid [(1R)-1-phenyl-ethyl]-amide], the results for the inhibition at 1 µM on human CB-2 receptor (setting [2]) and on human CB1 receptor were 0% and 13%, respectively.
For `C[C@@H](NC(=O)c1nn(-c2ccc(Cl)cc2)c2c1CSC/C2=C\c1ccc(F)cc1)c1ccccc1` [Cpd 94, (7Z)-1-(4-chloro-phenyl)-7-(4-fluoro-benzylidene)-1,4,6,7-tetrahydro-thiopyrano[4,3-c]pyrazole-3-carboxylic acid [(1R)-1-phenyl-ethyl]-amide], the inhibition at 0.2 µM on human CB-2 receptor (setting [2]) was 22%. This compound also had a concentration for half-maximal inhibition (IC50) at human CB1 receptor of 11 nM.
Consider `O=C(NN1CCCCC1)c1nn(-c2ccc(Cl)cc2Cl)c2c1CSC/C2=C\c1ccc(F)cc1` [Cpd 54, (7Z)-1-(2,4-dichloro-phenyl)-7-(4-fluoro-benzylidene)-1,4,6,7-tetrahydro-thiopyrano[4,3-c]pyrazole-3-carboxylic acid piperidin-1-ylamide], for which, at human CB-2 receptor (setting [1]), the inhibition at 0.2 µM was 25%. The same compound came in with a half-inhibitory concentration (IC50) on human CB1 receptor of 34 nM.
`C[C@H](NC(=O)/C=C/c1nn(Cc2ccccc2)c2c1CS(=O)(=O)CC2)c1ccccc1` [Cpd 36, (2E)-3-(1-benzyl-5,5-dioxo-4,5,6,7-tetrahydro-1H-5λ^6-thiopyrano[4,3-c]pyrazol-3-yl)-N-[(1S)-1-phenyl-ethyl]-acrylamide]: on human CB1 receptor, the inhibition at 1 µM came out at 25.5% and the inhibition at 10 µM turned out to be 1%.
For the compound `CC(NS(=O)(=O)/C=C/c1nn(Cc2ccccc2)c2c1C[S+]([O-])CC2)c1ccccc1` (stereo not drawn) [Cpd 29, (E)-2-(1-benzyl-5-oxo-4,5,6,7-tetrahydro-1H-5λ^4-thiopyrano[4,3-c]pyrazol-3-yl)-ethenesulfonic acid (1-phenyl-ethyl)-amide], the inhibition at 10 µM at human CB1 receptor came out at 8%.
As to `CC(NS(=O)(=O)/C=C/c1c2c(nn1Cc1ccccc1)CC[S+]([O-])C2)C1CCCCC1` (stereo not drawn) [Cpd 26, (E)-2-(2-benzyl-5-oxo-4,5,6,7-tetrahydro-2H-5λ^4-thiopyrano[4,3-c]pyrazol-3-yl)-ethenesulfonic acid (1-cyclohexyl-ethyl)-amide], on human CB-2 receptor (test concentration 10 μM (superscript c), 10 µM), the “CB2 binding percent inhibition” value came out at 32%. Moreover, the inhibition at 10 µM on human CB-2 receptor (test concentration 10 μM (superscript c), read-out: CB2 binding percent inhibition) is 22%.

In general, inhibition refers to the percentage by which the read-out fell short of the control. The IC50 is the concentration needed to halve the response being measured. Read a low IC50 as inhibition by little substance.
